Molecular target: ATP-dependent translocase ABCB1 (Mus musculus, UniProt P21447)
Test: TP_TRANSPORTER: increase in brain concentration in mdr1a(-/-) mouse
Assay type: functional, organism-based
Details: in vivo

Sequence of ATP-dependent translocase ABCB1 (P21447 whole entry): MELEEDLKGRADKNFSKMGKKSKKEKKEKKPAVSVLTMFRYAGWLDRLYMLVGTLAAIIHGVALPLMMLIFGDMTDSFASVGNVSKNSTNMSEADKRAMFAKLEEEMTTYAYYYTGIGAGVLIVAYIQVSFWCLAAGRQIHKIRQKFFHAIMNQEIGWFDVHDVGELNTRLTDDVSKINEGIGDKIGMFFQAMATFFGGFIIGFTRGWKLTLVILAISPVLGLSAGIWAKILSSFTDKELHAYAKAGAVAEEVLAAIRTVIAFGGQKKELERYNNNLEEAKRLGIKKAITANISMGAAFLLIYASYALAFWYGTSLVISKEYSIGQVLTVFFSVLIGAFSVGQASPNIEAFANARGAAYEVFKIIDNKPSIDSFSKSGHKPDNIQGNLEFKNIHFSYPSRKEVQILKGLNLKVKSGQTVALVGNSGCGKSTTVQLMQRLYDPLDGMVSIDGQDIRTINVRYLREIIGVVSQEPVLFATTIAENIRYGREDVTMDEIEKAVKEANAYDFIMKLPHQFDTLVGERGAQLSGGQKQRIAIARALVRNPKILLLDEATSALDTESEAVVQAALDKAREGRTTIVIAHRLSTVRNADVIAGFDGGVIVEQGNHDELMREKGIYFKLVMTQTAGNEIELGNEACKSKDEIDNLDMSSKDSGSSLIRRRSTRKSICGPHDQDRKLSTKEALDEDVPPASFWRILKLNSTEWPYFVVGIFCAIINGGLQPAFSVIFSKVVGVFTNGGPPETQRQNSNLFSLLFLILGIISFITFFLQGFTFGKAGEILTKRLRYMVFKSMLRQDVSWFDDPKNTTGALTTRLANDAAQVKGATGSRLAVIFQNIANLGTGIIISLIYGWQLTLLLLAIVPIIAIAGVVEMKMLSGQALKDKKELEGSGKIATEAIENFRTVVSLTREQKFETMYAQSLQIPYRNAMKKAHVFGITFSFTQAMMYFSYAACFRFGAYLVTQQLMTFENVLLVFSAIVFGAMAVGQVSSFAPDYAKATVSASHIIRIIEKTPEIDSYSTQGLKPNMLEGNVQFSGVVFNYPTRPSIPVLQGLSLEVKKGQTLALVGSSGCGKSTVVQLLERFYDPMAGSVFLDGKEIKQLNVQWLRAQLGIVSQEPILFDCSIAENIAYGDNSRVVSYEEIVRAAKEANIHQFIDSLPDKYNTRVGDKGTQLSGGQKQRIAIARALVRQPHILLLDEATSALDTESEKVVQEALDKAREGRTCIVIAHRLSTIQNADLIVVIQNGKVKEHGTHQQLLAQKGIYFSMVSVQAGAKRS

Activity: substrate [+]
Compound: C/C=C/C[C@@H](C)C(=O)[C@H]1C(=O)N[C@@H](C(C)C)C(=O)N(C)CC(=O)N(C)[C@@H](CC(C)C)C(=O)N[C@@H](C(C)C)C(=O)N(C)[C@@H](CC(C)C)C(=O)N[C@@H](C)C(=O)N[C@H](C)C(=O)N(C)[C@@H](CC(C)C)C(=O)N(C)[C@@H](CC(C)C)C(=O)N(C)[C@@H](C(C)C)C(=O)N1C [VALSPODAR]

— ChEMBL document CHEMBL2074373, “Effect of the Mdr1a P-glycoprotein gene disruption on the tissue distribution of SDZ PSC 833, a multidrug resistance-reversing agent, in mice” (J Pharmacol Exp Ther, 1998)
